Assay results from US9216968B2, “Heterocyclic derivative and pharmaceutical drug” (NIPPON SHINYAKU CO., LTD., priority 2011, dated 2015).
Structures can show the parent of a compound that is named as a salt.

Tests used:
A549 cells = assay: Inhibition of PGE2 production in A549 cell (IL-1β stimulated); assay type: cell-based, human; conditions: Homo sapiens, A549, 24 h, IL-1β 5 ng/well, PGE2 in culture medium
In short: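 After IL-1β (5 ng/well) stimulation for 24 h at 37 °C, following a 60-min compound pretreatment in RPMI with 3% FBS, medium PGE2 (HTRF) and PGF2α (EIA) from human A549 cells were quantified. 100% activity set as IL-1β-induced minus basal production; IC50 calculated.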

human mPGES-1 = human mPGES-1 (Homo sapiens (Human), UniProt O14684); assay: mPGES-1 inhibiting activity (microsome fractions, PGE2 by HTRF); assay type: biochemical; conditions: microsomes from CHO-K1 cells transfected with human mPGES-1; PGH2 1 μM, 4° C., 60 seconds; read-out: mPGES-1 Inhibition IC50
In short: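 PGE2 formation read by HTRF after 60 s at 4 °C with 1 μM PGH2 substrate, following 20 min compound preincubation (1% DMSO) with human mPGES-1 microsomes from transfected CHO-K1 cells. Buffer: potassium phosphate, reduced glutathione, pH 7.4; IC50 from activity relative to enzyme-free blank.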

human mPGES-1, sequence (O14684 whole entry): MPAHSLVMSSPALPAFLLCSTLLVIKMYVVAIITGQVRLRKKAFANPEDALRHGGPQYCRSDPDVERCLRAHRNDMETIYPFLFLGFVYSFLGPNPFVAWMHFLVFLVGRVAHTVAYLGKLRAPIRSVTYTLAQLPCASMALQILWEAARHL

SMILES | IC50 (A549 cells) | IC50 (human mPGES-1)
COCC(C)(C)CN(C)c1nc2c(C(=O)Nc3cccc(Cl)c3C)cc(NC(=O)c3ccccc3C(F)(F)F)cc2[nH]1 [Example 173, N-(3-Chloro-2-methylphenyl)-2-[(3-methoxy-2,2-dimethylpropyl)(methyl)amino]-6-({[2-(trifluoromethyl)phenyl]carbonyl}amino)-1H-benzimidazole-4-carboxamide hydrochloride] | 60.8 nM | 1.1 nM
CNc1nc2c(C(=O)Nc3cccc(Cl)c3C)cc(NC(=O)c3ccccc3C(F)(F)F)cc2[nH]1 [Example 138, N-(3-Chloro-2-methylphenyl)-2-(methylamino)-6-({[2-(trifluoromethyl)phenyl]carbonyl}amino)-1H-benzimidazole-4-carboxamide hydrochloride] | 87.4 nM | 2.2 nM
COCc1nc2c(C(=O)Nc3nc4ccc(Cl)cc4o3)cc(NC(=O)c3ccccc3C(F)(F)F)cc2[nH]1 [Example 233, N-(6-Chloro-1,3-benzoxazol-2-yl)-2-(methoxymethyl)-6-({[2-(trifluoromethyl)phenyl]carbonyl}amino)-1H-benzimidazole-4-carboxamide hydrochloride] | 195 nM | 2.5 nM
Cc1c(Cl)cccc1NC(=O)c1cc(NC(=O)c2cc(Cl)ccc2Cl)cc2[nH]c([C@H]3CCCO3)nc12 [Example 129, N-(3-Chloro-2-methylphenyl)-6-{[(2,5-dichlorophenyl)carbonyl]amino}-2-[(2R)-tetrahydrofuran-2-yl]-1H-benzimidazole-4-carboxamide hydrochloride] | 178 nM | 59.4 nM
COCc1nc2c(C(=O)Nc3ccc(C)cc3C)cc(NC(=O)c3ccccc3C(F)(F)F)cc2[nH]1 [Example 29, N-(2,4-Dimethylphenyl)-2-(methoxymethyl)-6-({[2-(trifluoromethyl)phenyl]carbonyl}amino)-1H-benzimidazole-4-carboxamide hydrochloride] | 85.5 nM | 3.5 nM
CC(=O)OCc1nc2c(C(=O)Nc3cccc(Cl)c3C)cc(NC(=O)c3ccccc3C(F)(F)F)cc2[nH]1 [Example 63, {4-[(3-Chloro-2-methylphenyl)carbamoyl]-6-({[2-(trifluoromethyl)phenyl]carbonyl}amino)-1H-benzimidazol-2-yl}methyl acetate] | 54.8 nM | 5.6 nM
O=C(Nc1cc(C(=O)NCc2ccccc2C(F)(F)F)c2nc([C@H]3CCCO3)[nH]c2c1)c1ccccc1C(F)(F)F [Example 65, 2-[(2R)-Tetrahydrofuran-2-yl]-N-[2-(trifluoromethyl)benzyl]-6-({[2-(trifluoromethyl)phenyl]carbonyl}amino)-1H-benzimidazole-4-carboxamide] | 72.2 nM | 9.6 nM
COCc1nc2c(C(=O)Nc3ccccc3OC)cc(NC(=O)c3ccccc3C(F)(F)F)cc2[nH]1 [Example 36, 2-(Methoxymethyl)-N-(2-methoxyphenyl)-6-({[2-(trifluoromethyl)phenyl]carbonyl}amino)-1H-benzimidazole-4-carboxamide] | 234 nM | 147 nM
COCc1nc2c(C(=O)NCc3ccccc3C(F)(F)F)cc(NC(=O)c3ccccc3C(F)(F)F)cc2[nH]1 [Example 21, 2-(Methoxymethyl)-N-[2-(trifluoromethyl)benzyl]-6-({[2-(trifluoromethyl)phenyl]carbonyl}amino)-1H-benzimidazole-4-carboxamide] | 69.4 nM | 8.3 nM
COCc1nc2c(C(=O)Nc3ccccc3C)cc(NC(=O)c3ccccc3C(F)(F)F)cc2[nH]1 [Example 22, 2-(Methoxymethyl)-N-(2-methylphenyl)-6-({[2-(trifluoromethyl)phenyl]carbonyl}amino)-1H-benzimidazole-4-carboxamide hydrochloride] | 104 nM | 4.8 nM
Cc1ccc(NC(=O)c2cc(NC(=O)c3cc(Cl)ccc3Cl)cc3[nH]c(C4CC4)nc23)cc1Cl [Example 209, N-(3-Chloro-4-methylphenyl)-2-cyclopropyl-6-{[(2,5-dichlorophenyl)carbonyl]amino}-1H-benzimidazole-4-carboxamide hydrochloride] | 10.3 nM | 1 nM
Cc1c(Cl)cccc1NC(=O)c1cc(NC(=O)c2ccccc2C(F)(F)F)cc2[nH]c(N[C@H](CO)C(C)C)nc12 [Example 170, N-(3-Chloro-2-methylphenyl)-2-{[(2S)-1-hydroxy-3-methylbutan-2-yl]amino}-6-({[2-(trifluoromethyl)phenyl]carbonyl}amino-1H-benzimidazole-4-carboxamide hydrochloride] | 17.8 nM | 3.2 nM
COCc1nc2c(C(=O)Nc3cccc(Cl)c3C)cc(NC(=O)c3ccc(C)cc3Cl)cc2[nH]1 [Example 105, N-(3-Chloro-2-methylphenyl)-6-{[(2-chloro-4-methylphenyl)carbonyl]amino}-2-(methoxymethyl)-1H-benzimidazole-4-carboxamide hydrochloride] | 325 nM | 8.9 nM
Cc1c(Cl)cccc1NC(=O)c1cc(NC(=O)c2ccccc2C(F)(F)F)cc2[nH]c(N3CC[C@H](O)C3)nc12 [Example 150, N-(3-Chloro-2-methylphenyl)-2-[(3S)-3-hydroxypyrrolidin-1-yl]-6-({[2-(trifluoromethyl)phenyl]carbonyl}amino)-1H-benzimidazole-4-carboxamide hydrochloride] | 376 nM | 2.1 nM
COC(C)(C)CNc1nc2c(C(=O)Nc3cccc(Cl)c3C)cc(NC(=O)c3c(F)cccc3Cl)cc2[nH]1 [Example 197, 6-{[(2-Chloro-6-fluorophenyl)carbonyl]amino}-N-(3-chloro-2-methylphenyl)-2-[(2-methoxy-2-methylpropyl)amino]-1H-benzimidazole-4-carboxamide hydrochloride] | 34.4 nM | 5.2 nM
COCc1nc2c(C(=O)Nc3c(F)cccc3F)cc(NC(=O)c3ccccc3C(F)(F)F)cc2[nH]1 [Example 40, N-(2,6-Difluorophenyl)-2-(methoxymethyl)-6-({[2-(trifluoromethyl)phenyl]carbonyl}amino)-1H-benzimidazole-4-carboxamide] | 300 nM | 194 nM
O=C(Nc1cc(C(=O)NC2CCCCC2)c2nc[nH]c2c1)c1ccccc1C(F)(F)F [Example 2, N-Cyclohexyl-6-({[2-(trifluoromethyl)phenyl]carbonyl}amino)-1H-benzimidazole-4-carboxamide] | 240 nM | 7.6 nM
Cc1c(Cl)cccc1NC(=O)c1cc(NC(=O)c2c(F)cccc2Cl)cc2[nH]c(N[C@H](CO)C(C)C)nc12 [Example 201, 6-{[(2-Chloro-6-fluorophenyl)-carbonyl]amino}-N-(3-chloro-2-methylphenyl)-2-{[(25)-1-hydroxy-3-methylbutan-2-yl]amino}-1H-benzimidazole-4-carboxamide hydrochloride] | 253 nM | 0.5 nM
COCCc1nc2c(C(=O)Nc3ccc(C)c(Cl)c3)cc(NC(=O)c3cc(Cl)ccc3Cl)cc2[nH]1 [Example 213, N-(3-Chloro-4-methylphenyl)-6-{[(2,5-dichlorophenyl)carbonyl]amino}-2-(2-methoxyethyl)-1H-benzimidazole-4-carboxamide hydrochloride] | 142 nM | 0.9 nM
Cc1c(Cl)cccc1NC(=O)c1cc(NC(=O)c2ccccc2C(F)(F)F)cc2[nH]c(S(C)(=O)=O)nc12 [Example 180, N-(3-Chloro-2-methylphenyl)-2-(methylsulfonyl)-6-({[2-(trifluoromethyl)phenyl]carbonyl}amino)-1H-benzimidazole-4-carboxamide] | 774 nM | 1.1 nM
Cc1ccc(NC(=O)c2cc(NC(=O)c3c(F)cccc3Cl)cc3[nH]c(N(C)C)nc23)cc1Cl [Example 205, 6-{[(2-Chloro-6-fluorophenyl)carbonyl]amino}-N-(3-chloro-4-methylphenyl)-2-(dimethylamino)-1H-benzimidazole-4-carboxamide hydrochloride] | 25.6 nM | 3.7 nM
Cc1c(Cl)cccc1NC(=O)c1cc(NC(=O)c2cc(Cl)ccc2Cl)cc2[nH]c(C3(C)CC3)nc12 [Example 210, N-(3-Chloro-2-methylphenyl)-6-{[(2,5-dichlorophenyl)carbonyl]amino}-2-(1-methylcyclopropyl)-1H-benzimidazole-4-carboxamide hydrochloride] | 13.8 nM | 4.7 nM
COCc1nc2c(C(=O)NCC3CCCCCC3)cc(NC(=O)c3ccccc3C(F)(F)F)cc2[nH]1 [Example 231, N-(Cycloheptylmethyl)-2-(methoxymethyl)-6-({[2-(trifluoromethyl)phenyl]carbonyl}amino)-1H-benzimidazole-4-carboxamide hydrochloride] | 150 nM | 1.9 nM
Cc1c(Cl)cccc1NC(=O)c1cc(NC(=O)c2ccccc2C(F)(F)F)cc2[nH]c(N3CC[C@H](N(C)C)C3)nc12 [Example 149, N-(3-Chloro-2-methylphenyl)-2-[(3S)-3-(dimethylamino)pyrrolidin-1-yl]-6-({[2-(trifluoromethyl)phenyl]carbonyl}amino)-1H-benzimidazole-4-carboxamide dihydrochloride] | 43.3 nM | 1 nM
Cc1c(Cl)cccc1NC(=O)c1cc(NC(=O)c2ccccc2C(F)(F)F)cc2[nH]c(N3CCOCC3)nc12 [Example 156, N-(3-Chloro-2-methylphenyl)-2-(morpholin-4-yl)-6-({[2-(trifluoromethyl)phenyl]carbonyl}amino)-1H-benzimidazole-4-carboxamide] | 24.6 nM | 1.6 nM
